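Results reflect a 48-hour exposure of cells in 96-well plates to compound at five concentrations. GI50 = concentration required for 50% inhibition of growth. TGI: concentration producing complete growth inhibition.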
What was measured:
Test in all cases: inhibition of tumour cell growth, NCI panel, 48 h
SNB-19 CNS = system: SNB-19 CNS
MALME-3M melanoma = system: MALME-3M melanoma
PC-3 prostate = system: PC-3 prostate
OVCAR-4 ovarian = system: OVCAR-4 ovarian
EKVX NSCLC = system: EKVX NSCLC
KM12 colon = system: KM12 colon
UACC-62 melanoma = system: UACC-62 melanoma
NCI-H226 lung = system: NCI-H226 lung
HCT-15 colon = system: HCT-15 colon
MDA-N = system: MDA-N

Compound | TGI (SNB-19 CNS) | TGI (MALME-3M melanoma) | TGI (PC-3 prostate) | TGI (OVCAR-4 ovarian) | TGI (EKVX NSCLC) | TGI (KM12 colon) | TGI (UACC-62 melanoma) | TGI (NCI-H226 lung) | TGI (HCT-15 colon) | TGI (MDA-N) | GI50 (PC-3 prostate) | GI50 (UACC-62 melanoma) | GI50 (NCI-H226 lung) | GI50 (SNB-19 CNS) | GI50 (MALME-3M melanoma) | GI50 (OVCAR-4 ovarian) | GI50 (EKVX NSCLC) | GI50 (KM12 colon) | GI50 (HCT-15 colon)
C[C@]12CC[C@@H]3c4ccc(O)cc4CC[C@H]3[C@@H]1C/C(=C\c1ccc(C#N)cc1)C2=O | > 100 µM | > 100 µM | > 100 µM | > 100 µM | > 100 µM | > 100 µM | > 100 µM | > 100 µM | > 100 µM | > 100 µM | – | – | – | – | – | – | – | – | –
CC1(C)OC2COC3([C@@H]4OC(C)(C)O[C@@H]4CO)OC(C)(C)OC3C2O1 (some centres not stated) | > 100 µM | – | > 100 µM | > 100 µM | > 100 µM | > 100 µM | > 100 µM | > 100 µM | > 100 µM | > 100 µM | – | – | – | – | – | – | – | – | –
CON(C)C(=O)C1CCCO1 (configuration not stated) | > 100 µM | – | > 100 µM | > 100 µM | > 100 µM | > 100 µM | > 100 µM | > 100 µM | > 100 µM | > 100 µM | – | – | – | – | – | – | – | – | –
O=c1c2ccccc2sc2ccccc12 | > 100 µM | > 100 µM | > 100 µM | > 100 µM | > 100 µM | > 100 µM | > 100 µM | > 100 µM | > 100 µM | > 100 µM | – | – | – | – | – | – | – | – | –
CCOC(=O)c1ccc(Nc2nc3ccc(C(F)(F)F)cc3nc2C(=O)OCC)cc1 | > 100 µM | > 100 µM | > 100 µM | – | > 100 µM | > 100 µM | > 100 µM | > 100 µM | > 100 µM | > 100 µM | – | – | – | – | – | – | – | – | –
CC1(C)CC(C#Cc2ccccc2)CC(C)(C)N1O | > 100 µM | 32.9 µM | 29.4 µM | > 100 µM | > 100 µM | 36.1 µM | 42.5 µM | 53.6 µM | 29 µM | 29.9 µM | – | – | – | – | – | – | – | – | –
COc1cc(C(O)c2ccc3c(c2)OCO3)cc(OC)c1OC (configuration not stated) | > 100 µM | > 100 µM | > 100 µM | > 100 µM | > 100 µM | > 100 µM | > 100 µM | > 100 µM | > 100 µM | > 100 µM | – | – | – | – | – | – | – | – | –
CCOC(=O)c1sc2ncnc(N)c2c1C | > 100 µM | > 100 µM | > 100 µM | > 100 µM | > 100 µM | > 100 µM | > 100 µM | > 100 µM | > 100 µM | > 100 µM | – | – | – | – | – | – | – | – | –
CC(C)/C(Cl)=N/OC(=O)Nc1ccc(OC(F)(F)F)cc1 | 31.6 µM | 6.5 µM | 30.4 µM | 16.7 µM | 22.9 µM | 30.3 µM | 30.2 µM | 23.5 µM | 18.8 µM | 26.2 µM | – | – | – | – | – | – | – | – | –
CC(=O)Oc1c(C)c(C)c2c(c1C)CCC(C)(CC(=O)OCCCCCCCCCCC[P+](c1ccccc1)(c1ccccc1)c1ccccc1)O2 (configuration not stated) | – | – | 0.976 µM | – | – | – | 0.982 µM | 25.4 µM | – | – | 0.194 µM | 0.291 µM | 0.386 µM | – | – | – | – | – | –
COc1ccc(-n2nc(C)c3c(Nc4ccc(NC(=O)Nc5ccc(Cl)c(C(F)(F)F)c5)cc4)ncnc32)cc1 | 7.88 µM | 3.35 µM | 3.95 µM | > 100 µM | 5.55 µM | 3.96 µM | 3.74 µM | 6.08 µM | 3.09 µM | – | 1.16 µM | 1.78 µM | 2.21 µM | 2.49 µM | 1.54 µM | 2.85 µM | 2.19 µM | 1.48 µM | 1.42 µM
CN(C)c1cccc2c1C(=O)C=CC21c2ccc(N(C)C)c3c(N(C)C)ccc(c23)C(c2ccccc2)C1c1ccccc1 (configuration not stated) | 44.4 µM | 35.6 µM | 30.2 µM | 27.2 µM | 54.8 µM | 31.3 µM | 54.7 µM | 39.2 µM | 66.8 µM | 37 µM | – | – | – | – | – | – | – | – | –
O=S1(=O)C[C@@H](NCc2ccccc2)[C@H](NCc2ccccc2)C1 | > 100 µM | > 100 µM | > 100 µM | > 100 µM | > 100 µM | > 100 µM | > 100 µM | > 100 µM | – | > 100 µM | – | – | – | – | – | – | – | – | –
O=C1/C(=C/c2cccc([N+](=O)[O-])c2)Sc2scc(-c3ccc([N+](=O)[O-])cc3)[n+]21 | 46.1 µM | – | > 100 µM | > 100 µM | 61.1 µM | 33.3 µM | 48.5 µM | > 100 µM | 33.6 µM | > 100 µM | – | – | – | – | – | – | – | – | –
CCOC(=O)NC(Nc1c(F)c(F)c(F)c(F)c1F)(C(F)(F)F)C(F)(F)F | > 100 µM | > 100 µM | > 100 µM | – | > 100 µM | > 100 µM | > 100 µM | > 100 µM | > 100 µM | > 100 µM | – | – | – | – | – | – | – | – | –
O=C1OC(c2ccccc2)N(C(=O)c2ccccc2)C1Cc1ccc(OCc2ccccc2)cc1 (configuration not stated) | > 100 µM | – | > 100 µM | – | > 100 µM | – | > 100 µM | > 100 µM | > 100 µM | > 100 µM | – | – | – | – | – | – | – | – | –
COc1cc(/C=C2\CCC(C)/C(=C\c3cc(OC)c(OC)c(OC)c3)C2=O)cc(OC)c1OC (configuration not stated) | 18.4 µM | – | 11.1 µM | – | 16.3 µM | 8.46 µM | 6.89 µM | – | 6.57 µM | 16.1 µM | – | – | – | – | – | – | – | – | –
COc1ccc(C2c3cc4c(cc3OC(NCCO)C2C)OCO4)cc1 (configuration not stated) | > 100 µM | 47.7 µM | 66.3 µM | – | 92.5 µM | > 100 µM | > 100 µM | 90.2 µM | 54.4 µM | 63.7 µM | – | – | – | – | – | – | – | – | –
CCOC(=O)C1CCC(=O)N1C(=O)c1ccccc1Cl (configuration not stated) | > 100 µM | > 100 µM | > 100 µM | – | > 100 µM | > 100 µM | 95.5 µM | > 100 µM | > 100 µM | > 100 µM | – | – | – | – | – | – | – | – | –
CN1CCN(C2=C(Cl)C3(OCCS3)C(F)(F)C2(F)F)CC1 (configuration not stated) | > 100 µM | > 100 µM | – | > 100 µM | > 100 µM | – | > 100 µM | > 100 µM | > 100 µM | > 100 µM | – | – | – | – | – | – | – | – | –
O=S1(=O)c2cnccc2NC(=NCc2ccccc2)N1c1ccccc1 | > 100 µM | > 100 µM | > 100 µM | > 100 µM | > 100 µM | > 100 µM | > 100 µM | > 100 µM | > 100 µM | – | – | – | – | – | – | – | – | – | –

— PubChem BioAssay (NCI)
